Measurements from ChEMBL document CHEMBL3526118, “Combination of GSH trapping and time-dependent inhibition assays as a predictive method of drugs generating highly reactive metabolites” (Drug Metab Dispos, 2011).

Columns and labels:
Liver microsome [1] = test: Covalent binding in human liver microsomes measured per mg of protein using radiolabelled compound at 10 uM after 1 hr incubation by liquid scintillation counting
Liver microsome [2] = test: Metabolic activation in human liver microsomes assessed as [3H]GSH adduct formation rate measured per mg of protein at 100 uM by [3H]GSH trapping assay
CYP1A2 = target: T1, CYP1A2 (Homo sapiens, UniProt P05177); test: in vitro
T1 sequence (P05177 whole entry): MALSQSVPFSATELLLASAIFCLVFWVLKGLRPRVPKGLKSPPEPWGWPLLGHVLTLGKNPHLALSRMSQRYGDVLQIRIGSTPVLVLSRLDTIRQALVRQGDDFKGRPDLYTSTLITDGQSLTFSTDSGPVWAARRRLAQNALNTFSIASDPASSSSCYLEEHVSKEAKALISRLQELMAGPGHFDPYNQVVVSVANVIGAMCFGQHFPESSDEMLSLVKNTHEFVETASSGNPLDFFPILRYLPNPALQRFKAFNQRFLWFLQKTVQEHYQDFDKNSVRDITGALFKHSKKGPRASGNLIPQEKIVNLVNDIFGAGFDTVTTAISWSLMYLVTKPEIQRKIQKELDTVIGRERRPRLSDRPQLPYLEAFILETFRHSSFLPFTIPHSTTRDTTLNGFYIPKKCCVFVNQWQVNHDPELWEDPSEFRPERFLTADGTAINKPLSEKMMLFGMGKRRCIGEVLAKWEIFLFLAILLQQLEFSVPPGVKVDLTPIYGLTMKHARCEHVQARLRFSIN

CYP2B6 = target: T2, CYP2B6 (Homo sapiens, UniProt P20813); test: in vitro
T2 sequence (P20813 whole entry): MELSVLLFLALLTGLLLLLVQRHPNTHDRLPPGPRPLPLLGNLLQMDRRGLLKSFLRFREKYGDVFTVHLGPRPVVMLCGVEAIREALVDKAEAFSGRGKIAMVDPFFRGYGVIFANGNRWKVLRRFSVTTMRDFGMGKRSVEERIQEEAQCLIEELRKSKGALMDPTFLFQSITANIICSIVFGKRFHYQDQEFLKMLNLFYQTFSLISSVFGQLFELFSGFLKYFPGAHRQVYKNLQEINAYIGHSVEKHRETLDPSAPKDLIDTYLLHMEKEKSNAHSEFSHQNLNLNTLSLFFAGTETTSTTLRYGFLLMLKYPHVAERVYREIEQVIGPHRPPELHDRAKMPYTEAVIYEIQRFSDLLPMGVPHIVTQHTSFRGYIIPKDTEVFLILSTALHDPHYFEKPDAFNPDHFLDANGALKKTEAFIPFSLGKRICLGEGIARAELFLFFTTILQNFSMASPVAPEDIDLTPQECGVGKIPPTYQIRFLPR

CYP2C9 = CYP2C9 (Homo sapiens, UniProt P11712); test: in vitro
Sequence of CYP2C9 (P11712 whole entry): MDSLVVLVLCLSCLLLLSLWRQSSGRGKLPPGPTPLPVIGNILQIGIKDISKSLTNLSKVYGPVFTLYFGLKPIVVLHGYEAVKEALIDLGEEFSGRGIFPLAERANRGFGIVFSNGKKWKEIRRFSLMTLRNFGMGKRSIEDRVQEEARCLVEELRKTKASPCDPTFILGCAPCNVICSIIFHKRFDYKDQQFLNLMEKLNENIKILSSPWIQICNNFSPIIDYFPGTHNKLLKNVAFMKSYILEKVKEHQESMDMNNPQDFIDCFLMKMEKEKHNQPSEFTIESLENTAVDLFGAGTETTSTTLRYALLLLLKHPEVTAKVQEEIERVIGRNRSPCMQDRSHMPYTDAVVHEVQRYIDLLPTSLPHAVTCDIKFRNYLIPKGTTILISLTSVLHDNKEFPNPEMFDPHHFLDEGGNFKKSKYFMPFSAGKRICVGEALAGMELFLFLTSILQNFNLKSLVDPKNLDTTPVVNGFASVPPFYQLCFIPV

CYP2C19 = CYP2C19 (Homo sapiens, UniProt P33261); test: in vitro
Sequence of CYP2C19 (P33261 whole entry): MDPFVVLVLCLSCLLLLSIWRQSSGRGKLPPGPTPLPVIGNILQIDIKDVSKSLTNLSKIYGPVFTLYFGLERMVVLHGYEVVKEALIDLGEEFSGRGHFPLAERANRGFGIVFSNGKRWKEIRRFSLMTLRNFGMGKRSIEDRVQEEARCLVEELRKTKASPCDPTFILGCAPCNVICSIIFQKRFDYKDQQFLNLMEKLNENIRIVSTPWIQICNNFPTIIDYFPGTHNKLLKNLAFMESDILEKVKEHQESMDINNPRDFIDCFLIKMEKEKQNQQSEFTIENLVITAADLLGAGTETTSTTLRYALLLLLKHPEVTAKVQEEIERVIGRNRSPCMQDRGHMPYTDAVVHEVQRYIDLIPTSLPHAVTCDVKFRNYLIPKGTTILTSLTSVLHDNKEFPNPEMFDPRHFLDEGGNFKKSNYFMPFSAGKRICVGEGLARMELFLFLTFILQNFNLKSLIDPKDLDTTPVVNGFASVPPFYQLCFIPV

CYP2D6 = CYP2D6 (Homo sapiens, UniProt P10635); test: in vitro
Sequence of CYP2D6 (P10635 whole entry): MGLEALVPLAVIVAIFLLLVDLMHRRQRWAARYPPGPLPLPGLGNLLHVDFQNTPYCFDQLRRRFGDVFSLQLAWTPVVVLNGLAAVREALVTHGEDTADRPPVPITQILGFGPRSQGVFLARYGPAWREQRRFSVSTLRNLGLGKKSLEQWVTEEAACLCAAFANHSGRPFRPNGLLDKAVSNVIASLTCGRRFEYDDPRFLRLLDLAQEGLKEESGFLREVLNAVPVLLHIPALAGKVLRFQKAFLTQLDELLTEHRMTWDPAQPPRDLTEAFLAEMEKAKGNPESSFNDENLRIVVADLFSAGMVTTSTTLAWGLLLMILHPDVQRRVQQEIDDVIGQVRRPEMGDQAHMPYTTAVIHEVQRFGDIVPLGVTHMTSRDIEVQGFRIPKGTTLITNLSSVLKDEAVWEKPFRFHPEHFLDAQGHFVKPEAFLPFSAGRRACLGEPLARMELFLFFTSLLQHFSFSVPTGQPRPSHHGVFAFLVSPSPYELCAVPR

CYP3A4 = CYP3A4 (Homo sapiens, UniProt P08684); test: in vitro
Sequence of CYP3A4 (P08684 whole entry): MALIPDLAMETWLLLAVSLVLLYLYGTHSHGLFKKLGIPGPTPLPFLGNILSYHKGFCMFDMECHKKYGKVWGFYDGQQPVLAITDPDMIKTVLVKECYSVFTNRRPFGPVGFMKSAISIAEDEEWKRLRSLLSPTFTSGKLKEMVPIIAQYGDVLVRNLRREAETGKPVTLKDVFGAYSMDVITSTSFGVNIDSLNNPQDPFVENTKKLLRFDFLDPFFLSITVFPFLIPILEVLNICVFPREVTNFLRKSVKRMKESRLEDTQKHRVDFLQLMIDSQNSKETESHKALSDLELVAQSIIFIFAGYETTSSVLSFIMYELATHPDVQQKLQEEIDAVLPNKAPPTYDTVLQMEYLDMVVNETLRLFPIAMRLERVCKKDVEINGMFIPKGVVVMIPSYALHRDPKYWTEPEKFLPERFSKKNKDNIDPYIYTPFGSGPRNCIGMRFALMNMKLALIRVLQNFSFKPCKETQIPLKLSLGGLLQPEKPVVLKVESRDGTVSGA

CYP2C8 = target: T3, CYP2C8 (Homo sapiens, UniProt P10632); test: in vitro
T3 sequence (P10632 whole entry): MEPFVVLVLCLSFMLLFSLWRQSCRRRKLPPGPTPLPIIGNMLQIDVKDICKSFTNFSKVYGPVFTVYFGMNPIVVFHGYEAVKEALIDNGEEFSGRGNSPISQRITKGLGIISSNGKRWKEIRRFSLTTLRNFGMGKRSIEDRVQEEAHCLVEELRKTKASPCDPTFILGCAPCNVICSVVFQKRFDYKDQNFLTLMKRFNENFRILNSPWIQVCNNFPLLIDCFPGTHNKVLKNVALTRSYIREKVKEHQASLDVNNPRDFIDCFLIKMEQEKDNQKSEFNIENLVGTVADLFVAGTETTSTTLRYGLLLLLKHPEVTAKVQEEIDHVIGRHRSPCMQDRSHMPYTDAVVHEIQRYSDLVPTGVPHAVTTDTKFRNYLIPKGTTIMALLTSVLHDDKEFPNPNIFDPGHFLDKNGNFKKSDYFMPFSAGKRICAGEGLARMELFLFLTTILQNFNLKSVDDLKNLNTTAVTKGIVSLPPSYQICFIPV

[3] = Intrinsic clearance for reactive metabolites formation per mg of protein based on cytochrome P450 (unknown origin) inactivation rate by TDI assay; conditions: human
[4] = Intrinsic clearance for reactive metabolites formation assessed as summation of [3H]GSH adduct formation rate-based reactive metabolites formation and cytochrome P450 (unknown origin) inactivation rate-based reactive metabolites formation; conditions: human

Structure (SMILES) | PB (Liver microsome [1]) | Drug metabolism (Liver microsome [2]) | inhibition at 100 µM (CYP1A2) | inhibition at 100 µM (CYP2B6) | inhibition at 100 µM (CYP2C9) | inhibition at 100 µM (CYP2C19; human liver microsomes) | inhibition at 100 µM (CYP2D6) | inhibition at 100 µM (CYP3A4) | inhibition at 100 µM (CYP2C8) | inhibition at 100 µM (CYP2C19; microsomes) | clearance [3] | clearance [4]
COc1ccc(CCN(C)CCCC(C#N)(c2ccc(OC)c(OC)c2)C(C)C)cc1OC (centres undefined) | – | – | < 10% | 10% | < 10% | – | < 10% | 51% | < 10% | < 10% | – | –
Cn1c(=O)c2c(ncn2C)n(C)c1=O [CAFFEINE] | 9.9 pmol | metabolite_not_detected | < 10% | < 10% | < 10% | < 10% | < 10% | < 10% | < 10% | – | – | –
CN1CCN(C2=Nc3cc(Cl)ccc3Nc3ccccc32)CC1 [CLOZAPINE] | – | – | 12% | < 10% | < 10% | – | < 10% | – | < 10% | – | – | –
CC[C@H]1OC(=O)[C@H](C)[C@@H](O[C@H]2C[C@@](C)(OC)[C@@H](O)[C@H](C)O2)[C@H](C)[C@@H](O[C@@H]2O[C@H](C)C[C@H](N(C)C)[C@H]2O)[C@](C)(O)C[C@@H](C)C(=O)[C@H](C)[C@@H](O)[C@]1(C)O [ERYTHROMYCIN] | 57.1 pmol | metabolite_not_detected | < 10% | < 10% | < 10% | < 10% | < 10% | 45% | < 10% | – | 0.021 µL/min/mg | 0.021 µL/min/mg
NS(=O)(=O)c1cc(C(=O)O)c(NCc2ccco2)cc1Cl [FUROSEMIDE] | – | – | – | < 10% | – | – | – | – | < 10% | – | – | –
C[C@H]1COc2c(N3CCN(C)CC3)c(F)cc3c(=O)c(C(=O)O)cn1c23.C[C@H]1COc2c(N3CCN(C)CC3)c(F)cc3c(=O)c(C(=O)O)cn1c23.O [LEVOFLOXACIN] | – | metabolite_not_detected | < 10% | < 10% | < 10% | < 10% | < 10% | – | < 10% | – | – | –
Cc1cc(NS(=O)(=O)c2ccc(N)cc2)no1 [SULFAMETHOXAZOLE] | – | – | – | < 10% | – | – | – | – | < 10% | – | – | –
Nc1c2c(nc3ccccc13)CCCC2 [TACRINE] | 137 pmol | metabolite_not_detected | 28% | < 10% | < 10% | – | 24% | < 10% | < 10% | < 10% | 0.007 µL/min/mg | 0.007 µL/min/mg
CCCC(CCC)C(=O)O [VALPROIC ACID] | – | – | < 10% | < 10% | < 10% | – | < 10% | < 10% | < 10% | – | – | –

Results, then the compound that gave them:

PB (Liver microsome [1]) | Drug metabolism (Liver microsome [2]) | inhibition at 100 µM (CYP1A2) | inhibition at 100 µM (CYP2B6) | inhibition at 100 µM (CYP2C9) | inhibition at 100 µM (CYP2C19; human liver microsomes) | inhibition at 100 µM (CYP2D6) | inhibition at 100 µM (CYP3A4) | inhibition at 100 µM (CYP2C8) | inhibition at 100 µM (CYP2C19; microsomes) | clearance [3] | clearance [4] | Structure (SMILES)
1.4 pmol | metabolite_not_detected | < 10% | < 10% | < 10% | < 10% | < 10% | < 10% | < 10% | – | – | – | CCCCC(=O)N(Cc1ccc(-c2ccccc2-c2nnn[nH]2)cc1)[C@H](C(=O)O)C(C)C
30.9 pmol | metabolite_not_detected | < 10% | < 10% | < 10% | – | < 10% | < 10% | < 10% | < 10% | – | – | Cc1c(N(C)C)c(=O)n(-c2ccccc2)n1C [AMINOPYRINE]
352.3 pmol | 12.7 pmol/min | – | < 10% | – | – | – | – | < 10% | – | – | – | CC(C)c1c(C(=O)Nc2ccccc2)c(-c2ccccc2)c(-c2ccc(F)cc2)n1CC[C@@H](O)C[C@@H](O)CC(=O)O [ATORVASTATIN]
29.7 pmol | metabolite_not_detected | – | – | – | – | – | – | – | – | – | – | COc1cc2c(cc1OC)C(=O)C(CC1CCN(Cc3ccccc3)CC1)C2 (centres undefined) [DONEPEZIL]
– | – | < 10% | < 10% | < 10% | – | < 10% | < 10% | < 10% | – | – | – | CN(C)CCCN1c2ccccc2CCc2ccccc21 [IMIPRAMINE]
14.7 pmol | metabolite_not_detected | < 10% | < 10% | < 10% | < 10% | < 10% | < 10% | 14% | – | 0.001 µL/min/mg | 0.001 µL/min/mg | COc1ccc2c(c1)c(CC(=O)O)c(C)n2C(=O)c1ccc(Cl)cc1 [INDOMETHACIN]
3.4 pmol | metabolite_not_detected | < 10% | < 10% | < 10% | < 10% | < 10% | < 10% | < 10% | – | – | – | CCCc1nc(C(C)(C)O)c(C(=O)O)n1Cc1ccc(-c2ccccc2-c2nnn[nH]2)cc1 [OLMESARTAN]
3.7 pmol | metabolite_not_detected | < 10% | < 10% | < 10% | – | < 10% | < 10% | < 10% | < 10% | – | – | CC[C@H](C)C(=O)O[C@H]1C[C@H](O)C=C2C=C[C@H](C)[C@H](CC[C@@H](O)C[C@@H](O)CC(=O)O)[C@H]21 [PRAVASTATIN]
5.1 pmol | 41.3 pmol/min | < 10% | < 10% | < 10% | – | < 10% | < 10% | < 10% | – | – | – | CCN(CC)CCNC(=O)c1ccc(N)cc1 [PROCAINAMIDE]
– | – | 25% | < 10% | < 10% | – | < 10% | < 10% | < 10% | < 10% | 0.004 µL/min/mg | 0.031 µL/min/mg | CC(C)NCC(O)COc1cccc2ccccc12 (centres undefined) [PROPRANOLOL]
253.3 pmol | metabolite_not_detected | – | – | – | – | – | – | – | – | 3.55 µL/min/mg | 3.55 µL/min/mg | CC(C)c1nc(CN(C)C(=O)N[C@H](C(=O)N[C@@H](Cc2ccccc2)C[C@H](O)[C@H](Cc2ccccc2)NC(=O)OCc2cncs2)C(C)C)cs1 [RITONAVIR]
6.4 pmol | metabolite_not_detected | < 10% | < 10% | < 10% | – | < 10% | < 10% | < 10% | < 10% | – | – | Cc1cc(CC(=O)O)n(C)c1C(=O)c1ccc(Cl)cc1 [ZOMEPIRAC]
